Source: PubChem BioAssay (NCI)
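Cells were grown in 96-well plates and exposed to each compound for 48 hours at five concentrations; endpoints were interpolated linearly between bracketing concentrations, or set to the highest concentration if not reached. GI50: concentration for 50% inhibition of growth. TGI is the concentration that stops growth completely.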

How the values were obtained:
Assay in all cases: NCI anticancer screen, dose series, 48 h
OVCAR-4 ovarian = tested on: OVCAR-4 ovarian
SK-OV-3 ovarian = tested on: SK-OV-3 ovarian
SF-268 CNS = tested on: SF-268 CNS
HCC-2998 colon = tested on: HCC-2998 colon
U251 CNS = tested on: U251 CNS
NCI-H23 lung = tested on: NCI-H23 lung
A498 renal = tested on: A498 renal
CAKI-1 renal = tested on: CAKI-1 renal
CCRF-CEM leukemia = tested on: CCRF-CEM leukemia
A549 NSCLC = tested on: A549 NSCLC

## COc1ccc(Nc2ncccc2/C=C/C(=O)c2cc(OC)c(OC)c(OC)c2)cc1
OVCAR-4 ovarian
  GI50: 1.62 µM
  TGI: 3.47 µM
SK-OV-3 ovarian
  GI50: 2.72 µM
  TGI: 8.56 µM
SF-268 CNS
  GI50: 1.77 µM
  TGI: 4.08 µM
HCC-2998 colon
  GI50: 1.68 µM
  TGI: 3.09 µM
U251 CNS
  GI50: 1.27 µM
  TGI: 2.52 µM
NCI-H23 lung
  GI50: 1.72 µM
  TGI: 3.79 µM
A498 renal
  GI50: 3.19 µM
  TGI: 11.7 µM
CAKI-1 renal
  GI50: 1.52 µM
  TGI: 3.88 µM
CCRF-CEM leukemia
  GI50: 0.5 µM
  TGI: > 100 µM

## Nc1ccc(-c2nc3ccccc3[nH]2)c(O)c1
SK-OV-3 ovarian
  GI50: > 100 µM
  TGI: > 100 µM
SF-268 CNS
  GI50: 27.6 µM
  TGI: > 100 µM
U251 CNS
  GI50: 60.3 µM
  TGI: > 100 µM
NCI-H23 lung
  GI50: 20 µM
  TGI: 66.3 µM
A498 renal
  GI50: 31.9 µM
  TGI: 68.5 µM
CAKI-1 renal
  GI50: 27.1 µM
  TGI: 58.1 µM
A549 NSCLC
  GI50: 35.3 µM
  TGI: > 100 µM

## CC(=NCCN(CCN=C(C)c1c(O)cc(C)oc1=O)CCN=C(C)c1c(O)cc(C)oc1=O)c1c(O)cc(C)oc1=O
OVCAR-4 ovarian
  TGI: > 100 µM
SK-OV-3 ovarian
  TGI: > 100 µM
SF-268 CNS
  TGI: > 100 µM
HCC-2998 colon
  TGI: > 100 µM
U251 CNS
  TGI: > 100 µM
CCRF-CEM leukemia
  TGI: > 100 µM
A549 NSCLC
  TGI: > 100 µM

## OCCN(CCO)c1cccc(N(CCO)CCO)c1
OVCAR-4 ovarian
  TGI: > 100 µM
SK-OV-3 ovarian
  TGI: > 100 µM
SF-268 CNS
  TGI: > 100 µM
U251 CNS
  TGI: > 100 µM
NCI-H23 lung
  TGI: > 100 µM
A498 renal
  TGI: > 100 µM
CAKI-1 renal
  TGI: > 100 µM
CCRF-CEM leukemia
  TGI: > 100 µM
A549 NSCLC
  TGI: > 100 µM

## C[N+](C)([O-])CCCNc1c2ccccc2nc2cccc([N+](=O)[O-])c12
OVCAR-4 ovarian
  TGI: 3.16 µM
SK-OV-3 ovarian
  TGI: > 29.4 µM
SF-268 CNS
  TGI: 8.14 µM
HCC-2998 colon
  TGI: 0.393 µM
U251 CNS
  TGI: 2.24 µM
NCI-H23 lung
  TGI: 0.676 µM
A498 renal
  TGI: 0.545 µM
CAKI-1 renal
  TGI: 11.6 µM
CCRF-CEM leukemia
  TGI: 1.96 µM
A549 NSCLC
  TGI: 0.795 µM

## Nc1c(C(=O)c2cccc(-c3ccc[n+]([O-])c3)c2)cnn1-c1ccc(F)cc1F
OVCAR-4 ovarian
  GI50: > 25 µM
  TGI: > 25 µM
SK-OV-3 ovarian
  GI50: > 25 µM
  TGI: > 25 µM
SF-268 CNS
  GI50: > 25 µM
  TGI: > 25 µM
HCC-2998 colon
  GI50: > 25 µM
  TGI: > 25 µM
U251 CNS
  GI50: > 25 µM
  TGI: > 25 µM
NCI-H23 lung
  GI50: > 25 µM
  TGI: > 25 µM
A498 renal
  GI50: > 25 µM
  TGI: > 25 µM
CAKI-1 renal
  GI50: > 25 µM
  TGI: > 25 µM
CCRF-CEM leukemia
  GI50: > 25 µM
  TGI: > 25 µM
A549 NSCLC
  GI50: > 25 µM
  TGI: > 25 µM

## O=C(Nc1ccc(Cl)cc1)c1cc2c(cc1O)[nH]c1ccccc12
OVCAR-4 ovarian
  GI50: 4.66 µM
  TGI: 17.6 µM
SK-OV-3 ovarian
  GI50: 2.32 µM
  TGI: 6.51 µM
SF-268 CNS
  GI50: 3.92 µM
  TGI: 14.7 µM
HCC-2998 colon
  GI50: 2 µM
  TGI: 5.27 µM
U251 CNS
  GI50: 3.18 µM
  TGI: 11.3 µM
NCI-H23 lung
  GI50: 2.54 µM
  TGI: 9.68 µM
A498 renal
  GI50: 2.56 µM
  TGI: 7.29 µM
CAKI-1 renal
  GI50: 2.26 µM
  TGI: 6.02 µM
CCRF-CEM leukemia
  GI50: 4.37 µM
  TGI: > 100 µM
A549 NSCLC
  GI50: 2.85 µM
  TGI: 10.3 µM

## COc1ccccc1/C=C1\CCC(CNc2ccc(Cl)cc2)C1=O (stereo not given)
OVCAR-4 ovarian
  TGI: 28.2 µM
SK-OV-3 ovarian
  TGI: 16.8 µM
SF-268 CNS
  TGI: 24.2 µM
HCC-2998 colon
  TGI: 18.8 µM
U251 CNS
  TGI: 23.2 µM
NCI-H23 lung
  TGI: 20.8 µM
A498 renal
  TGI: 27 µM
CAKI-1 renal
  TGI: 13.6 µM
CCRF-CEM leukemia
  TGI: 19.7 µM
A549 NSCLC
  TGI: 17 µM

## COc1ccc(-c2nsc3c2NC(=O)CC3c2ccc3c(c2)OCO3)cc1 (stereo not given)
OVCAR-4 ovarian
  GI50: 6.03 µM
  TGI: > 100 µM
SK-OV-3 ovarian
  GI50: 2.33 µM
  TGI: > 100 µM
SF-268 CNS
  GI50: 6.44 µM
  TGI: > 100 µM
HCC-2998 colon
  GI50: 1.6 µM
  TGI: 6.37 µM
NCI-H23 lung
  GI50: 3.2 µM
  TGI: > 100 µM
A498 renal
  GI50: 1.05 µM
  TGI: 7.05 µM
CAKI-1 renal
  GI50: 0.852 µM
  TGI: > 100 µM
CCRF-CEM leukemia
  GI50: 1.09 µM
  TGI: 8.49 µM
A549 NSCLC
  GI50: 0.841 µM
  TGI: > 100 µM

## COc1cc(N=Nc2ccccc2)cc(/C=N\[N-]C(N)=S)c1[O-].COc1cc(N=Nc2ccccc2)cc(/C=N\[N-]C(N)=S)c1[O-].[Fe+4]
OVCAR-4 ovarian
  GI50: 17.8 µM
  TGI: > 100 µM
SK-OV-3 ovarian
  GI50: > 100 µM
  TGI: > 100 µM
SF-268 CNS
  GI50: 12.2 µM
  TGI: > 100 µM
HCC-2998 colon
  GI50: 29.7 µM
  TGI: > 100 µM
NCI-H23 lung
  GI50: 21.1 µM
  TGI: > 100 µM
CCRF-CEM leukemia
  GI50: 15.8 µM
  TGI: 92.6 µM
A549 NSCLC
  GI50: 46.4 µM
  TGI: > 100 µM

## CC(=N\O)/C(C)=N/O.CC(=N\O)/C(C)=N/O.CC(=N\O)/C(C)=N/O.CC(=N\O)/C(C)=N/O.[Cu].[Cu]
OVCAR-4 ovarian
  GI50: 20.4 µM
  TGI: 35.9 µM
SK-OV-3 ovarian
  GI50: 18.6 µM
  TGI: 34.5 µM
SF-268 CNS
  GI50: 19.8 µM
  TGI: 34.6 µM
HCC-2998 colon
  GI50: 16.8 µM
  TGI: 30.5 µM
U251 CNS
  GI50: 17.6 µM
  TGI: 31.3 µM
A498 renal
  GI50: 24.4 µM
  TGI: 39.1 µM
CAKI-1 renal
  GI50: 20.3 µM
  TGI: 34.6 µM
A549 NSCLC
  GI50: 23 µM
  TGI: 48.5 µM

## Cc1ccc(C(=O)O/N=C2/CCCCC2CN(C)C)cc1 (stereo not given)
OVCAR-4 ovarian
  TGI: > 100 µM
SK-OV-3 ovarian
  TGI: > 100 µM
HCC-2998 colon
  TGI: > 100 µM
U251 CNS
  TGI: > 100 µM
NCI-H23 lung
  TGI: > 100 µM
A498 renal
  TGI: > 100 µM
CAKI-1 renal
  TGI: > 100 µM
CCRF-CEM leukemia
  TGI: > 100 µM
A549 NSCLC
  TGI: > 100 µM

## ON(CCc1ccncc1)Cc1ccccc1
OVCAR-4 ovarian
  TGI: > 100 µM
SK-OV-3 ovarian
  TGI: > 100 µM
SF-268 CNS
  TGI: > 100 µM
NCI-H23 lung
  TGI: > 100 µM
A498 renal
  TGI: > 100 µM
CAKI-1 renal
  TGI: > 100 µM
A549 NSCLC
  TGI: > 100 µM

## Oc1ccc2occ3c2c1CCC3
OVCAR-4 ovarian
  TGI: > 100 µM
SK-OV-3 ovarian
  TGI: > 100 µM
HCC-2998 colon
  TGI: > 100 µM
U251 CNS
  TGI: > 100 µM
NCI-H23 lung
  TGI: > 100 µM
A498 renal
  TGI: > 100 µM
CAKI-1 renal
  TGI: > 100 µM
CCRF-CEM leukemia
  TGI: > 100 µM
A549 NSCLC
  TGI: > 100 µM

## O=Nc1c(-c2cccc([N+](=O)[O-])c2)nc2cnccn12
OVCAR-4 ovarian
  TGI: 41.4 µM
SK-OV-3 ovarian
  TGI: > 100 µM
SF-268 CNS
  TGI: 79.4 µM
U251 CNS
  TGI: 42.4 µM
NCI-H23 lung
  TGI: 36.1 µM
CAKI-1 renal
  TGI: 43 µM
CCRF-CEM leukemia
  TGI: 1.72 µM
A549 NSCLC
  TGI: 83.8 µM

## O=C(CC1(O)C(=O)Nc2ccc(Br)cc21)c1ccc(Cl)cc1 (stereo not given)
OVCAR-4 ovarian
  TGI: > 100 µM
SK-OV-3 ovarian
  TGI: > 100 µM
SF-268 CNS
  TGI: > 100 µM
U251 CNS
  TGI: 95.1 µM
NCI-H23 lung
  TGI: > 100 µM
A498 renal
  TGI: > 100 µM
CCRF-CEM leukemia
  TGI: > 100 µM
A549 NSCLC
  TGI: > 100 µM

## CCON=C1C(C)(C)C(C)(C)C(C)(C)C1(C)C
OVCAR-4 ovarian
  TGI: > 100 µM
SK-OV-3 ovarian
  TGI: > 100 µM
SF-268 CNS
  TGI: > 100 µM
U251 CNS
  TGI: > 100 µM
NCI-H23 lung
  TGI: > 100 µM
A498 renal
  TGI: > 100 µM
CAKI-1 renal
  TGI: > 100 µM
CCRF-CEM leukemia
  TGI: > 100 µM
A549 NSCLC
  TGI: > 100 µM

## CCN(CC)c1ccc(N=C2C=CC(=O)c3ncccc32)c(C)c1
OVCAR-4 ovarian
  TGI: 4.93 µM
SK-OV-3 ovarian
  TGI: 34.3 µM
SF-268 CNS
  TGI: 21.3 µM
HCC-2998 colon
  TGI: 24.2 µM
U251 CNS
  TGI: 19.6 µM
NCI-H23 lung
  TGI: 18.6 µM
CAKI-1 renal
  TGI: 23.4 µM
CCRF-CEM leukemia
  TGI: 14.6 µM
A549 NSCLC
  TGI: 26.1 µM
